{
  "source": "patent US6919377B2",
  "about": "“Cyclohexylamine derivative as subtype selective NMDA receptor antagonists” (Warner Lambert Company LLC, priority 2000, dated 2005)",
  "key": {"[1]": {"molecular_target": "NR1a/NR2B (Rattus norvegicus, UniProt P35439+Q00960)", "sequence (Q00960 27-1482, other chains not shown)": "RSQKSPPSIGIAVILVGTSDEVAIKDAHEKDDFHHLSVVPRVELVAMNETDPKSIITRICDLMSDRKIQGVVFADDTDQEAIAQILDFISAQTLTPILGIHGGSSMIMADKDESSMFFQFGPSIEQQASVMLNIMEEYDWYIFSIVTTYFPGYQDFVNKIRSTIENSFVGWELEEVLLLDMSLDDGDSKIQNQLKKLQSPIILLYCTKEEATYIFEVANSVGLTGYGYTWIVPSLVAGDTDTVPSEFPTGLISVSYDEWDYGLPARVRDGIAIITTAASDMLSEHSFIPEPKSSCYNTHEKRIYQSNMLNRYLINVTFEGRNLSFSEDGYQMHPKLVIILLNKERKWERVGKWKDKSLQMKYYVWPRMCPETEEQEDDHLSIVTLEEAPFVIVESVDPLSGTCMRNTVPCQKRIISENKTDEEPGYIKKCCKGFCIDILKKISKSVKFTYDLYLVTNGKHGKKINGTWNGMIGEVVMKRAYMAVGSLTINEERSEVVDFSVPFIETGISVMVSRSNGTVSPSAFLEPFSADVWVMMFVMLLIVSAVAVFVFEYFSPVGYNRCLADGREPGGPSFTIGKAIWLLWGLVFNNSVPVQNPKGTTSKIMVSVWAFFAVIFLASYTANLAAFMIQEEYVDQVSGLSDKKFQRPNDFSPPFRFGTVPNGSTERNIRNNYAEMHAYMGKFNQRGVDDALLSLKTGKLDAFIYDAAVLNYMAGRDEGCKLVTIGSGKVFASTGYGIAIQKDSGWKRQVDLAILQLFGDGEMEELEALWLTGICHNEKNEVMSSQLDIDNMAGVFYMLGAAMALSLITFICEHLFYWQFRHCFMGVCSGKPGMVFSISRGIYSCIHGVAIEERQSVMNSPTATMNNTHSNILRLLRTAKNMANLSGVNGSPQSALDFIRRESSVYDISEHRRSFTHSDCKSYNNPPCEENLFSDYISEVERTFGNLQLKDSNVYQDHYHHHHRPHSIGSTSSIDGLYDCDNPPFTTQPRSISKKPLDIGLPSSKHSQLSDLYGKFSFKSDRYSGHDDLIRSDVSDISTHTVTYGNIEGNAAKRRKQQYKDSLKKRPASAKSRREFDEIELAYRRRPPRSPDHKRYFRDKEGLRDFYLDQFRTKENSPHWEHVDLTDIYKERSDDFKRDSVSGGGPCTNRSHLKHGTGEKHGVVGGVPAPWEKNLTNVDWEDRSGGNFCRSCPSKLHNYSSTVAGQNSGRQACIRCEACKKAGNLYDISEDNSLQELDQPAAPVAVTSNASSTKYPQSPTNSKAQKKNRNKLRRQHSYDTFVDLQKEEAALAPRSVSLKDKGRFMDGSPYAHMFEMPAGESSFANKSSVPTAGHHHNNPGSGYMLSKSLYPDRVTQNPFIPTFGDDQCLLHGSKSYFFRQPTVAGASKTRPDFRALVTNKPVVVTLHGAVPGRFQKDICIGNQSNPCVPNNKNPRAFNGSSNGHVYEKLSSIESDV", "test": "Electrophysiological assay at NMDA receptor subunits expressed in Xenopus oocytes (two-electrode voltage clamp)", "format": "cell-based", "protocol": "The clones were transformed into appropriate host bacteria and plasmid preparations were made with conventional DNA purification techniques. A sample of each clone was linearized by restriction enzyme digestion […] was synthesized with T3 RNA polymerase. The cRNA was diluted to 400 ng/μL and stored in 1 μL aliquots at −80° C. until injection.\nThe Xenopus Oocyte Expression System. […] Follicle-enclosed oocytes were micro-injected with 1:1 mixtures of NR1A:NR2A, 2B or 2C.; injecting 1 to 10 ng of RNA encoding each receptor subunit. NR1A encoding RNA was injected alone at ˜20 ng. Oocytes were stored in Barth's medium containing (in mM): NaCl, 88; KCl, 1; CaCl2, 0.41; Ca (NO3)2, 0.33; MgSO4, 0.82; NaHCO3, 2.4; HEPES 5, pH 7.4, with 0.11 mg/ml gentamicin sulphate. While oocytes were still surrounded by enveloping ovarian tissues, the Barth's medium was supplemented with 0.1% bovine serum.\nDrugs were applied by bath perfusion. Using oocytes expressing different subunit combinations of NMDA receptor, NMDA currents were activated by co-application of glutamate (100 μM) and glycine (1-100 μM). Inhibitory potency of the novel antagonists was assessed on responses elicited by fixed concentrations of glutamate and glycine, by measuring reductions in current induced by progressively increasing concentrations of antagonist.\nConcentration-inhibition curves were fit with Equation 1. […] For incomplete curves analysis by fitting was unreliable and IC50 values were calculated by simple regression over linear portions of the curves (Origin: Microcal Software)."}, "[2]": {"conditions": "Table 2, head names no subunit, electrophysiological assay results, read-out: IC50"}, "[3]": {"conditions": "Table 3, cloned rat NMDA receptor subunits in Xenopus oocytes, read-out: NR1a/NR2B Oocyte IC50"}, "[4]": {"conditions": "Table 1, cloned rat NMDA receptor subunits in Xenopus oocytes, currents activated by glutamate (100 μM) and glycine (1-100 μM), read-out: NR1a/NR2B Oocyte IC50"}},
  "note": "pIC50: −log10 of the molar value. Where a name gives a salt, the structure may show the parent alone. Read-outs that look alike come from different tables or passages of the source.",
  "data": [
    {"smiles": "CC(CCc1ccccc1)N[C@H]1CC[C@@H](c2ccc(O)cc2)CC1", "note": "(stereo partly drawn) [Example 6a, cis-4-[4-(1-Methyl-3-phenylpropylamino)cyclohexyl]phenol]", "values": [
      {"measurement": "pIC50", "setting": "[1]; [2]", "value": 6.22}
    ]},
    {"smiles": "Oc1ccc([C@H]2CC[C@H](NCCCc3ccccn3)CC2)cc1", "note": "[Example 15b, trans-4′-(3-Pyridin-2-ylpropylamino)cyclohexylphenol]", "values": [
      {"measurement": "pIC50", "setting": "[1]; [3]", "value": 6.28}
    ]},
    {"smiles": "Oc1ccc([C@H]2CC[C@H](NCCSc3ccccc3)CC2)cc1", "note": "[Example 24, 4-[4-(2-Phenylsulfanylethylamino)cyclohexyl]phenol]", "values": [
      {"measurement": "pIC50", "setting": "[1]; [2]", "value": 7.40}
    ]},
    {"smiles": "Oc1ccc([C@H]2CC[C@@H](NCCCc3ccccc3)CC2)cc1", "note": "[Example 2a, cis-4-[4-(3-Phenylpropylamino)cyclohexyl]phenol]", "values": [
      {"measurement": "pIC50", "setting": "[1]; [4]", "value": 6.22}
    ]},
    {"smiles": "Oc1ccc([C@H]2CC[C@H](N(CCCc3ccccc3)Cc3ccccc3)CC2)cc1", "note": "(as salt: HCl) [Example 29, 4-{4-[benzyl(3-phenylpropyl)amino]cyclohexyl}phenol]", "values": [
      {"measurement": "melting point", "value": "259 to 264", "unit": "°C"}
    ]},
    {"smiles": "Oc1ccc([C@H]2CC[C@H](NCCc3ccc(F)cc3)CC2)cc1", "note": "[Example 5b, trans-4-{4-[2-(4-Fluorophenyl)ethylamino]cyclohexyl}phenol]", "values": [
      {"measurement": "pIC50", "setting": "[1]; Table 4, cloned rat NMDA receptor subunits in Xenopus oocytes, read-out: NR1a/NR2B Oocyte IC50", "value": 6.12}
    ]},
    {"smiles": "Oc1ccc([C@H]2CC[C@@H](NCc3cccnc3)CC2)cc1", "note": "[Example 7a, cis-4-{4-[(Pyridin-3-ylmethyl)amino]cyclohexyl}phenol]", "values": [
      {"measurement": "pIC50", "setting": "[1]; [3]", "value": 3.87}
    ]},
    {"smiles": "Oc1ccc([C@H]2CC[C@H](NCCNc3ccccc3)CC2)cc1", "note": "[Example 25, Trans-4-[4-(2-phenylaminoethylamino)cyclohexyl]phenol]", "values": [
      {"measurement": "pIC50", "setting": "[1]; [2]", "value": 7.30}
    ]},
    {"smiles": "Oc1ccc([C@H]2CC[C@H](NCCCCCc3ccccc3)CC2)cc1", "note": "(as salt: HCl) [Example 9, 4-[4-(5-Phenylpentylamino)cyclohexyl]phenol]", "values": [
      {"measurement": "melting point", "value": "252 to 260", "unit": "°C"}
    ]},
    {"smiles": "Oc1ccc([C@H]2CC[C@H](NCCc3ccccc3)CC2)cc1", "note": "[Example 3b, trans-4-(4-Phenethylamiocyclohexyl)phenol]", "values": [
      {"measurement": "pIC50", "setting": "[1]; [4]", "value": 6.35}
    ]},
    {"smiles": "Oc1ccc([C@H]2CC[C@H](NCCCc3ccccc3)CC2)cc1", "note": "[Example 2b, trans-4-[4-(3-Phenylpropylamino)cyclohexyl]phenol]", "values": [
      {"measurement": "pIC50", "setting": "[1]; [4]", "value": 7.47}
    ]},
    {"smiles": "Oc1ccc([C@H]2CC[C@H](NCC#Cc3ccccc3)CC2)cc1", "note": "[Example 23, Trans-4-[4-(3-phenylprop-2-ynylamino)cyclohexyl]phenol]", "values": [
      {"measurement": "pIC50", "setting": "[1]; [2]", "value": 7.30}
    ]},
    {"smiles": "CC(CCc1ccccc1)N[C@H]1CC[C@H](c2ccc(O)cc2)CC1", "note": "(stereo partly drawn) [Example 6b, trans-4-[4-(1-Methyl-3-phenylpropylamino)cyclohexyl]phenol]", "values": [
      {"measurement": "pIC50", "setting": "[1]; [2]", "value": 7.00}
    ]},
    {"smiles": "Oc1ccc([C@H]2CC[C@H](NCc3cccnc3)CC2)cc1", "note": "[Example 7b, trans-4-{4-[(Pyridin-3-ylmethyl)amino]cyclohexyl}phenol]", "values": [
      {"measurement": "pIC50", "setting": "[1]; [3]", "value": 4.00}
    ]},
    {"smiles": "Oc1ccc([C@H]2CC[C@H](NCCOc3ccccc3)CC2)cc1", "note": "[Example 11b, trans-4-[4-(2-Phenoxyethylamino)cyclohexyl]phenol]", "values": [
      {"measurement": "pIC50", "setting": "[1]; [2]", "value": 7.70}
    ]},
    {"smiles": "Oc1ccc([C@H]2CC[C@@H](NCCCc3ccccn3)CC2)cc1", "note": "[Example 15a, cis-4-[4-(3-Pyridin-2-ylpropylamino)cyclohexyl]phenol]", "values": [
      {"measurement": "pIC50", "setting": "[1]; [3]", "value": 4.94}
    ]},
    {"smiles": "OC[C@@H](Cc1ccccc1)N[C@H]1CC[C@H](c2ccc(O)cc2)CC1", "note": "[Example 10b, trans-4-[4-((R)-1-Hydroxymethyl-2-phenylethylamino)cyclohexyl]phenol]", "values": [
      {"measurement": "pIC50", "setting": "[1]; [2]", "value": 5.30}
    ]},
    {"smiles": "Oc1ccc([C@H]2CC[C@@H](NCCOc3ccccc3)CC2)cc1", "note": "[Example 11a, cis-4-[4-(2-Phenoxyethylamino)cyclohexyl]phenol]", "values": [
      {"measurement": "pIC50", "setting": "[1]; [2]", "value": 5.70}
    ]},
    {"smiles": "Oc1ccc([C@H]2CC[C@H](NCCCCc3ccccc3)CC2)cc1", "note": "[Example 1b, trans-4-[4-(4-Phenylbutylamino)cyclohexyl]phenol]", "values": [
      {"measurement": "pIC50", "setting": "[1]; [4]", "value": 7.46}
    ]},
    {"smiles": "Oc1ccc([C@H]2CC[C@H](NCCCCCc3ccccc3)CC2)cc1", "note": "[Example 9, 4-[4-(5-Phenylpentylamino)cyclohexyl]phenol]", "values": [
      {"measurement": "pIC50", "setting": "[1]; [4]", "value": 6.46}
    ]},
    {"smiles": "OC[C@@H](Cc1ccccc1)N[C@H]1CC[C@@H](c2ccc(O)cc2)CC1", "note": "[Example 10a, cis-4-[4-((R)-1-Hydroxymethyl-2-phenylethylamino)cyclohexyl]phenol]", "values": [
      {"measurement": "pIC50", "setting": "[1]; [2]", "value": 4.54}
    ]}
  ]
}
